Activity calls are given as the source filed them. The rule behind the calls is not given here.
These compounds were tested on S. cerevisiae SKN7-toxicity growth rescue, plate reader (assay: SKN7 mediated toxicity in Saccharomyces cerevisiae, growth rescue counterscreen, dose confirmation (AID 624258);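 note: growth read after three days of incubation at 30 °C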).

Compound	AC40
O=c1c2c(-c3ccc(Cl)cc3)csc2ncn1/N=C/c1cccc([N+](=O)[O-])c1O	1.23 µM
Cc1cccc(C)c1NS(=O)(=O)c1ccc(-c2cnc(C3CC3)o2)cc1	7.85 µM
Cc1cc([N+](=O)[O-])c(NC2CCCCC2)c([N+](=O)[O-])c1	10.1 µM
O=[N+]([O-])c1cccc(-c2cc(-c3cc(Br)ccc3O)[nH]n2)c1	8.39 µM
Cc1ccc(NC2(c3nnnn3-c3c(C)cccc3C)CCCCC2)cc1	> 19.5 µM (inactive)
O=C(Nc1ccccc1N1CCOCC1)c1cc2c(s1)CCCCC2	7.06 µM
Cc1ccc(COc2ccc(Br)cc2/C=N/O)cc1	1.27 µM
O=C(CSc1ccc(-c2ccccn2)nn1)NC1CCCC1	7.77 µM
O=C(O)c1ccc(C(=O)c2cc([N+](=O)[O-])cc([N+](=O)[O-])c2)cc1	15.7 µM
O=C(N/N=C/c1cc(Br)ccc1O)c1ccccc1Cl	0.659 µM
Cc1ccc(N(CN2C(=O)c3ccccc3C2=O)C(=O)c2ccc([N+](=O)[O-])cc2[N+](=O)[O-])cc1	7.16 µM
COc1ccc(N=N/C(=C\O)C(=O)c2cccs2)cc1	1.32 µM
CCOC(=O)/C(=C/c1ccc(OC(=O)c2ccccc2)cc1)C(C)=O	1.83 µM
O=C1c2ccccc2NC(c2ccc(Cl)cc2Cl)N1O (configuration not stated)	7.55 µM
CC(C)CN(C(=O)c1cccc(S(=O)(=O)N2CCN(Cc3ccccc3)CC2)c1)C1CCS(=O)(=O)C1 (configuration not stated)	8.01 µM
O=C(N[C@@H](Cc1ccccc1)C(=O)CCl)OCc1ccccc1	1.14 µM
O=S(=O)(c1cc(C(F)(F)F)ccc1Cl)N1CCN(c2ncnc3ccccc23)CC1	17.1 µM
CCOC(=O)c1cccc2c1-c1ccccc1/C2=N/O	1.91 µM
Cc1nn(CCO)c(N)c1C1(O)C(=O)Nc2c(Cl)cc(Cl)cc21 (configuration not stated)	18.5 µM
O=c1c(Cl)c(Cl)cnn1Cc1nnc(-c2ccc(Cl)cc2)o1	7.97 µM
CC1=CC(=O)C(C(C)C)=C/C1=N/OC(=O)c1cccc([N+](=O)[O-])c1	1.05 µM
CC(=O)c1ccc(Sc2ccccc2)c([N+](=O)[O-])c1	> 19.5 µM (inactive)
O=C(C1CC2C=CC1C2)N1CCN(c2ccccc2)CC1 (configuration not stated)	3.11 µM
COc1cc(/C=C2\SC(=S)N(NS(=O)(=O)c3ccc(C)cc3)C2=O)ccc1O	1.64 µM
O=C(/C=C/c1ccccc1)c1cc(Br)ccc(=O)c1O	2.08 µM

Compound	AC40
Cc1oc2c(c1C(=O)c1ccc(Cl)cc1)C(=O)C(=O)c1ccccc1-2	1.27 µM
N=c1c2c(-c3ccccc3)c(-c3ccccc3)n(Cc3ccco3)c2ncn1CCCn1ccnc1	2.92 µM
CC(=O)Nc1ccc2c(c1)Cc1cc(N3C(=O)C=CC3=O)ccc1-2	0.236 µM
CC1S/C(=C(\C#N)C(=O)NCc2ccco2)N(Cc2ccco2)C1=O (configuration not stated)	> 19.5 µM (inactive)
C/C(CC(=O)Nc1ccccn1)=N\NC(=O)c1ccccc1O	5.11 µM
O=C1C(=C(I)I)c2ccccc2-c2ccccc21	2.07 µM
COc1ccc(OC)c2c1C(=O)C(Cl)=C(Cl)C2=O	0.66 µM
Cc1ccccc1OCC(O)Cn1c2ccccc2c2ccccc21 (configuration not stated)	3.61 µM
Fc1ccc(CCNC(=S)Nc2ccc(F)c(Cl)c2)cc1	3.7 µM
COc1ccc(-c2csc(NC(=O)c3ccccc3F)c2C(=O)O)cc1	0.644 µM
C[C@]12CCC3C(CC[C@H]4C[C@@H](O)CC[C@]34C)C1CC[C@@H]2OC(=O)[C@H](N)CCCCN (some centres not stated)	11 µM
CN(C1=C(NC(=O)c2ccc(Cl)cc2)C(=O)c2ccccc2C1=O)c1ccccc1	4.87 µM
Cc1ccc2oc(-c3ccccc3)c(C(=O)O)c(=O)c2c1	1.26 µM
COc1cccc(C(=O)N/N=C(/c2ccccc2)c2ccccn2)c1	3.84 µM
CCOc1ccc(-n2c(O)c(/C=N/NC(=O)C3COc4ccccc4O3)c3ccccc3c2=O)cc1 (configuration not stated)	2.18 µM
O=C(COC(=O)c1ccc([N+](=O)[O-])o1)NCc1ccc(F)cc1	6.69 µM
O=c1[nH][nH]cc1C=Nc1ccccc1O	2.18 µM
COC(=O)c1ccc(SC2CCCCC2)c([N+](=O)[O-])c1	1.47 µM
O=C(CSc1ccc(-c2ccccn2)nn1)NCc1ccccc1	7.08 µM
c1ccc2c(-c3c[nH]c4ccccc34)c3ccccc3nc2c1	5.73 µM
CCCNC(=O)c1ccc2c(=O)c(O)c(-c3ccc(F)cc3)[nH]c2c1	2.31 µM
COc1ccccc1C1CCN(c2cc(O)ccc2[N+](=O)[O-])CC1	2.83 µM
CC(C)(C)C(=O)C(Cl)C(=O)Nc1ccccc1 (configuration not stated)	2.17 µM
O=C(Oc1cc2oc(=O)cc(-c3ccccc3)c2cc1Cl)C1CCCCC1	8.04 µM
O=C(C=Cc1cccc(O)c1)c1ccccc1O	1.43 µM

Compound	AC40
Cc1ccc(NC2=CC(=O)C(=O)c3ccccc32)c(C)c1	18.7 µM
O=C(O)c1ccccc1NS(=O)(=O)c1cccc(-n2sc3ccccc3c2=O)c1	4.77 µM
O=C1/C(=C/c2cccs2)SC(=S)N1NS(=O)(=O)c1ccccc1	3.71 µM
O=[N+]([O-])c1cc(C(F)(F)F)ccc1NCCc1c[nH]c2ccc(O)cc12	1.11 µM
CCc1oc2ccccc2c1C(=O)c1cc(Br)c(O)c(Br)c1	0.912 µM
Cc1csc(NC(=S)Nc2cccc(Cl)c2)n1	11.6 µM
COc1ccc2cnn(CCOc3cc(C)ccc3C(C)C)c(=O)c2c1OC	4.15 µM
CCOC(=O)C1=C(Cc2ccc(OC)cc2)C(=O)c2ccccc2C1=O	2.67 µM
Cc1ccccc1OCc1nc2ccccc2n1C	7.54 µM
O=C1c2ccccc2NC(c2ccc(-c3ccc(F)cc3)o2)N1O (configuration not stated)	14 µM
CCN(CC)c1ccc(/C=N/NC(=O)c2cccc(S(=O)(=O)N3CCOCC3)c2)c(O)c1	1.39 µM
C=CS(=O)(=O)c1ccc(Oc2ccc(S(=O)(=O)C=C)cc2)cc1	7.95 µM
CO/N=C/c1ccc(Oc2ccc([N+](=O)[O-])cc2[N+](=O)[O-])c(OC)c1	18.5 µM
O=[N+]([O-])c1cc2oc3c(c2c(C=NCc2ccccc2)c1O)CCCC3	1.38 µM
Clc1ccc(OCc2nc(-c3ccncc3)no2)c(Br)c1	0.95 µM
O=C(CCCNC(=O)c1ccc(Cl)cc1)OCc1cccc(Br)c1	> 19.5 µM (inactive)
CC1(C(=O)OCC(=O)Nc2ccc3ccccc3c2)CC1(Cl)Cl (configuration not stated)	17.6 µM
O=C(O)c1ccc(N/N=C/C=C/c2ccccc2)cc1	1.11 µM
Cc1ccc(CCNc2ncnc(Cl)c2N)cc1	3.87 µM
Cc1ccc(CNC(=O)CSc2ccc(-c3ccccn3)nn2)cc1	2.75 µM
Cc1cc(F)ccc1S(=O)(=O)N(C(=O)c1ccncc1)c1ccc(OC(=O)c2ccncc2)cc1	2.42 µM
COc1cc(NC(=O)CSc2ccc(-c3ccccn3)nn2)cc(OC)c1	0.894 µM
CCCC1CCC(c2ccc(/C(N)=N/O)cc2)CC1 (configuration not stated)	0.476 µM
O=C(CSc1ccc(-c2ccccn2)nn1)N1CCCc2ccccc21	4.75 µM
C[C@H](O)[C@H]1CC[C@H]2[C@@H]3CCC4=CC(=O)CC[C@]4(C)[C@H]3CC[C@]12C	2.05 µM

Compound	AC40
C(=N\NC1=Nc2cccc3cccc1c23)/c1ccccn1	5.47 µM
O=[N+]([O-])c1ccc(N=Nc2ncc[nH]2)cc1	6.08 µM
CCN(CC)c1ccc(/C=N/NC(=O)c2c(Cl)cnn2C)c(O)c1	0.878 µM
CC(C)(C)n1nc(-c2ccc(Cl)cc2)c2c(N)ncnc21	12.6 µM
O=C1C=C(Nc2cccnc2)c2ccccc2C1=O	11 µM
O=S(=O)(CCSc1ccccn1)c1nc2ccccc2s1	6.53 µM
O=C(N/N=C(\c1ccccc1)c1cccnc1)c1cccc(F)c1	1.12 µM
CNc1ccc(C=C2C=Cc3ccccc32)cc1	0.998 µM
O=c1c(=Nc2ccccc2O)c(=O)c2ccccc12	1.06 µM
O=C(Nc1cccc(-c2nc3ccccc3s2)c1)c1cccs1	1.34 µM
CCn1c(=O)oc2cc(NC(=O)CCl)ccc21	18.2 µM
N#C/C(=C\Nc1ccccc1O)c1nc2ccccc2o1	1.12 µM
Cc1cc(/C=C2\SC(=S)NC2=O)c(C)n1-c1cccc(O)c1	6.18 µM
C=CCN(CC=C)C(=S)NC(=O)c1ccc(OC)c(Br)c1	0.652 µM
S=C(NCCCc1ccccc1)Nc1ccc(Br)cc1	4.26 µM
O=C(O)c1ccc(N/N=C/C2=C(N3CCOCC3)C(=C\c3ccccc3)/CC2)cc1	5.01 µM
CCCOc1ccc(N2C(=O)CC(N3CCC(C(=O)OCC)CC3)C2=O)cc1 (configuration not stated)	6.17 µM
CC(NCCN(C)C)C1CCC2C3CCc4cc(O)ccc4C3CCC12C (configuration not stated)	0.126 µM
O=C(COc1ccc(Cl)cc1)NCCSCc1cccc(Cl)c1	3.16 µM
O=c1c(-c2cccc3ccccc23)[n+]([O-])c2ccccc2n1O	12.6 µM
Cc1ccc(C)c(S(=O)(=O)N2CCN(Cc3ccc(O)c4ncccc34)CC2)c1	5.93 µM
COc1cc(OC)c(-c2c3cc(O)c(=O)cc-3oc3cc(O)c(O)cc23)cc1OC	1.57 µM

Reference: PubChem BioAssay AID624258 (Broad Institute, 2012)
